According to US8613914B2, “Peptidomimetic sulfamide compounds and antiviral uses thereof” (Novartis AG, priority 2009, dated 2013):

Target: HCV NS3-4A serine protease (full-length NS3-4A protein) (Hepatitis C virus genotype 1a (isolate 1) (HCV), UniProt P26664)
Experiment: HCV NS3-4A protease assay
Format: biochemical, HCV genotype 1a
Conditions: strain HCV-1, fluorogenic peptide substrate, read-out: Protease assay Ex. 12 IC50
Protocol: The inhibitory activity of certain compounds of Table A against HCV NS3-4A serine protease is determined in a homogenous assay using the full-length NS3-4A protein (genotype 1a, strain HCV-1) and a commercially available internally-quenched fluorogenic peptide substrate as described by Taliani, M., et al. 1996 Anal. Biochem. 240:60-67, which is incorporated by reference in its entirety.

Chain of HCV NS3-4A serine protease (full-length NS3-4A protein) (P26664 1027-1657): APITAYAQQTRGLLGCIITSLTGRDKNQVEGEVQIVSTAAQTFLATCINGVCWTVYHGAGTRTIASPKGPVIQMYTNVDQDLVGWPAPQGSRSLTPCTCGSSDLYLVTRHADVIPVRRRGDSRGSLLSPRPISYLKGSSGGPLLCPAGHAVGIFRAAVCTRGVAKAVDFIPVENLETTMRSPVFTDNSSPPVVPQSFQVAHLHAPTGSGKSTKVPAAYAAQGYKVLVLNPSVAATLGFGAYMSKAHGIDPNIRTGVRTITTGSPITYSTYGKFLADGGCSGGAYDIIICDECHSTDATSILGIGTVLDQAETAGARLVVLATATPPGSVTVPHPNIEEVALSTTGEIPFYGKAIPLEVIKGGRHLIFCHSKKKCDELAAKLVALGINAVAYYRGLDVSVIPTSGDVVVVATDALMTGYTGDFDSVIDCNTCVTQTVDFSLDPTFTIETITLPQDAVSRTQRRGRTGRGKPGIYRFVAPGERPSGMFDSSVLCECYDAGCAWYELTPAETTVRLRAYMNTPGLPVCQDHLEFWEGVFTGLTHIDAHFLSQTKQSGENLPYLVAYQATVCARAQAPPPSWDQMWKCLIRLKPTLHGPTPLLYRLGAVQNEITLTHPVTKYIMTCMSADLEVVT
Chain of HCV NS3-4A serine protease (full-length NS3-4A protein) (P26664 1658-1711 partner): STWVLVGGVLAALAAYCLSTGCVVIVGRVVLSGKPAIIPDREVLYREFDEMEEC

| Compound | IC50 |
| --- | --- |
| C=C[C@@H]1C[C@]1(NC(=O)[C@@H]1C[C@@]2(CN1C(=O)[C@@H](NC(=O)[C@@H](NC(=O)[C@@H]1CCCN1C(C)C)C(C)(C)C)C(C)(C)C)C(C)(C)C21CCC1)C(=O)NS(=O)(=O)N1CCCC1 [Compound 11, (5R,8S)-7-[(2S)-2-{[(2S)-2-({[(2S)-1-isopropylpyrrolidin-2-yl]carbonyl}amino)-3,3-dimethylbutanoyl]amino}-3,3-dimethylbutanoyl]-10,10-dimethyl-N-{(1R,2S)-1-[(pyrrolidin-1-ylsulfonyl)carbamoyl]-2-vinylcyclopropyl}-7-azadispiro[3.0.4.1]decane-8-carboxamide] | 20 nM |
| C=C[C@@H]1C[C@]1(NC(=O)[C@@H]1C[C@@]2(CN1C(=O)[C@@H](NC(=O)[C@@H](NC(=O)[C@@H]1CCCCN1C(C)C)C1CCCC1)C(C)(C)C)C(C)(C)C21CCC1)C(=O)NS(=O)(=O)N1CCCC1 [Compound 58, (5R,8S)-7-[(2S)-2-{[(2S)-2-cyclopentyl-2-({[(2S)-1-isopropylpiperidin-2-yl]carbonyl}amino)acetyl]amino}-3,3-dimethylbutanoyl]-10,10-dimethyl-N-{(1R,2S)-1-[(pyrrolidin-1-ylsulfonyl)carbamoyl]-2-vinylcyclopropyl}-7-azadispiro[3.0.4.1]decane-8-carboxamide] | 3.5 nM |
| C=C[C@@H]1C[C@]1(NC(=O)[C@@H]1C[C@@]2(CN1C(=O)[C@@H](NC(=O)[C@@H](NC(=O)[C@@H]1CCCCN1CCF)C1CCCCC1)C1CCOCC1)C(C)(C)C21CCC1)C(=O)NS(=O)(=O)N1CCCC1 [Compound 75, (5R,8S)-7-[(2S)-2-{[(2S)-2-cyclohexyl-2-({[(2S)-1-(2-fluoroethyl)piperidin-2-yl]carbonyl}amino)acetyl]amino}-2-(tetrahydro-2H-pyran-4-yl)acetyl]-10,10-dimethyl-N-{(1R,2S)-1-[(pyrrolidin-1-ylsulfonyl)carbamoyl]-2-vinylcyclopropyl}-7-azadispiro[3.0.4.1]decane-8-carboxamide] | 30 nM |
| C=C[C@@H]1C[C@]1(NC(=O)[C@@H]1C[C@@]2(CN1C(=O)[C@@H](NC(=O)[C@@H](NC(=O)[C@@H]1CCCN(CC)C1)C(C)(C)C)C(C)(C)C)C(C)(C)C21CCC1)C(=O)NS(=O)(=O)N1CCOCC1 [Compound 7, (5R,8S)-7-[(2S)-2-{[(2S)-2-({[(3R)-1-ethylpiperidin-3-yl]carbonyl}amino)-3,3-dimethylbutanoyl]amino}-3,3-dimethylbutanoyl]-10,10-dimethyl-N-{(1R,2S)-1-[(morpholin-4-ylsulfonyl)carbamoyl]-2-vinylcyclopropyl}-7-azadispiro[3.0.4.1]decane-8-carboxamide] | 450 nM |
| C=C[C@@H]1C[C@]1(NC(=O)[C@@H]1C[C@@]2(CN1C(=O)[C@@H](NC(=O)[C@@H](NC(=O)[C@@H]1CCCCN1CC)C1CCCCC1)C(C)(C)C)C(C)(C)C21CCC1)C(=O)NS(=O)(=O)N(CC)CC [Compound 77, (5R,8S)-7-[(2S)-2-{[(2S)-2-cyclohexyl-2-({[(2S)-1-ethylpiperidin-2-yl]carbonyl}amino)acetyl]amino}-3,3-dimethylbutanoyl]-N-[(1R,2S)-1-{[(diethylamino)sulfonyl]carbamoyl}-2-vinylcyclopropyl]-10,10-dimethyl-7-azadispiro[3.0.4.1]decane-8-carboxamide] | 0.9 nM |
| C=C[C@@H]1C[C@]1(NC(=O)[C@@H]1C[C@@]2(CN1C(=O)[C@@H](NC(=O)[C@@H](NC(=O)[C@@H]1CCCCN1C(C)C)C1CCCCC1)C(C)(C)C)C(C)(C)C21CCC1)C(=O)NS(=O)(=O)N1CCCCC1 [Compound 113, (5R,8S)-7-[(2S)-2-{[(2S)-2-cyclohexyl-2-({[(2S)-1-isopropylpiperidin-2-yl]carbonyl}amino)acetyl]amino}-3,3-dimethylbutanoyl]-10,10-dimethyl-N-{(1R,2S)-1-[(piperidin-1-ylsulfonyl)carbamoyl]-2-vinylcyclopropyl}-7-azadispiro[3.0.4.1]decane-8-carboxamide] | 3.5 nM |
| C=C[C@@H]1C[C@]1(NC(=O)[C@@H]1C[C@@]2(CN1C(=O)[C@@H](NC(=O)[C@@H](NC(=O)Cc1ccncc1)C1CCCCC1)C(C)(C)C)C(C)(C)C21CCC1)C(=O)NS(=O)(=O)N1CCCC1 [Compound 175, (5R,8S)-7-[(2S)-2-({cyclohexyl[(pyridin-4-ylacetyl)amino]acetyl}amino)-3,3-dimethylbutanoyl]-10,10-dimethyl-N-{(1R,2S)-1-[(pyrrolidin-1-ylsulfonyl)carbamoyl]-2-vinylcyclopropyl}-7-azadispiro[3.0.4.1]decane-8-carboxamide] | 10 nM |
| C=C[C@@H]1C[C@]1(NC(=O)[C@@H]1C[C@@]2(CN1C(=O)[C@@H](NC(=O)[C@@H](NC(=O)[C@@H]1CCCCN1C(C)C)C1CCCCC1)C(C)(C)C)C(C)(C)C21CCC1)C(=O)NS(=O)(=O)N(C)CC [Compound 170, (5R,8S)-7-[(2S)-2-{[(2S)-2-cyclohexyl-2-({[(2S)-1-isopropylpiperidin-2-yl]carbonyl}amino)acetyl]amino}-3,3-dimethylbutanoyl]-N-[(1R,2S)-1-({[ethyl(methyl)amino]sulfonyl}carbamoyl)-2-vinylcyclopropyl]-10,10-dimethyl-7-azadispiro[3.0.4.1]decane-8-carboxamide] | 0.5 nM |
| C=C[C@@H]1C[C@]1(NC(=O)[C@@H]1C[C@@]2(CN1C(=O)[C@@H](NC(=O)[C@@H](NC(=O)[C@@H]1CCCCN1C(C)C)C1(C)CCCCC1)C(C)(C)C)C(C)(C)C21CCC1)C(=O)NS(=O)(=O)N(CC)CC [Compound 133, (5R,8S)-N-[(1R,2S)-1-{[(diethylamino)sulfonyl]carbamoyl}-2-vinylcyclopropyl]-7-[(2S)-2-{[(2S)-2-({[(2S)-1-isopropylpiperidin-2-yl]carbonyl}amino)-2-(1-methylcyclohexyl)acetyl]amino}-3,3-dimethylbutanoyl]-10,10-dimethyl-7-azadispiro[3.0.4.1]decane-8-carboxamide] | 3 nM |
| C=C[C@@H]1C[C@]1(NC(=O)[C@@H]1C[C@@]2(CN1C(=O)[C@@H](NC(=O)[C@@H](NC(=O)[C@@H]1CCCCN1CC)C1CCCCC1)C(C)(C)C)C(C)(C)C21CCC1)C(=O)NS(=O)(=O)N(C)CC [Compound 94, (5R,8S)-7-[(2S)-2-{[(2S)-2-cyclohexyl-2-({[(2S)-1-ethylpiperidin-2-yl]carbonyl}amino)acetyl]amino}-3,3-dimethylbutanoyl]-N-[(1R,2S)-1-({[ethyl(methyl)amino]sulfonyl}carbamoyl)-2-vinylcyclopropyl]-10,10-dimethyl-7-azadispiro[3.0.4.1]decane-8-carboxamide] | 1.5 nM |
| CC[C@@H]1C[C@]1(NC(=O)[C@@H]1C[C@@]2(CN1C(=O)[C@@H](NC(=O)[C@@H](NC(=O)[C@@H]1CCCCN1C(C)C)C1CCCCC1)C(C)(C)C)C(C)(C)C21CCC1)C(=O)NS(=O)(=O)N(C)C1CC1 [Compound 90, (5R,8S)-7-[(2S)-2-{[(2S)-2-cyclohexyl-2-({[(2S)-1-isopropylpiperidin-2-yl]carbonyl}amino)acetyl]amino}-3,3-dimethylbutanoyl]-N-[(1R,2R)-1-({[cyclopropyl(methyl)amino]sulfonyl}carbamoyl)-2-ethylcyclopropyl]-10,10-dimethyl-7-azadispiro[3.0.4.1]decane-8-carboxamide] | 6.5 nM |
| [2H]C([2H])([2H])C([2H])([2H])N1CCCC[C@H]1C(=O)NC(C(=O)N[C@H](C(=O)N1C[C@]2(C[C@H]1C(=O)N[C@]1(C(=O)NS(=O)(=O)N3CCCC3)C[C@H]1C=C)C(C)(C)C21CCC1)C(C)(C)C)C1CCCCC1 (stereo partly drawn) [Compound 139, (5R,8S)-7-[(2S)-2-{[(2S)-2-cyclohexyl-2-({[(2S)-1-d5-ethylpiperidin-2-yl]carbonyl}amino)acetyl]amino}-3,3-dimethylbutanoyl]-10,10-dimethyl-N-{(1R,2S)-1-[(pyrrolidin-1-ylsulfonyl)carbamoyl]-2-vinylcyclopropyl}-7-azadispiro[3.0.4.1]decane-8-carboxamide-d5] | 3.5 nM |
| C=C[C@@H]1C[C@]1(NC(=O)[C@@H]1C[C@@]2(CN1C(=O)[C@@H](NC(=O)[C@@H](NC(=O)[C@@H]1CC(F)(F)CN1C(C)C)C1CCCCC1)C(C)(C)C)C(C)(C)C21CCC1)C(=O)NS(=O)(=O)N1CCCC1 [Compound 89, (5R,8S)-7-[(2S)-2-{[(2S)-2-cyclohexyl-2-({[(2S)-4,4-difluoro-1-isopropylpyrrolidin-2-yl]carbonyl}amino)acetyl]amino}-3,3-dimethylbutanoyl]-10,10-dimethyl-N-{(1R,2S)-1-[(pyrrolidin-1-ylsulfonyl)carbamoyl]-2-vinylcyclopropyl}-7-azadispiro[3.0.4.1]decane-8-carboxamide] | 30 nM |
| CC[C@@H]1C[C@]1(NC(=O)[C@@H]1C[C@@]2(CN1C(=O)[C@@H](NC(=O)[C@@H](NC(=O)[C@@H]1CCCCN1CC)C1CCCCC1)C(C)(C)C)C(C)(C)C21CCC1)C(=O)NS(=O)(=O)N1CCCC1 [Compound 87, (5R,8S)-7-[(2S)-2-{[(2S)-2-cyclohexyl-2-({[(2S)-1-ethylpiperidin-2-yl]carbonyl}amino)acetyl]amino}-3,3-dimethylbutanoyl]-N-{(1R,2R)-2-ethyl-1-[(pyrrolidin-1-ylsulfonyl)carbamoyl]cyclopropyl}-10,10-dimethyl-7-azadispiro[3.0.4.1]decane-8-carboxamide] | 7 nM |
| C=C[C@@H]1C[C@]1(NC(=O)[C@@H]1C[C@@]2(CN1C(=O)[C@@H](NC(=O)[C@@H](NC(=O)[C@@H]1CCCCN1C(C)C)C1CCCCC1)C(C)(C)C)C(C)(C)C21CCC1)C(=O)NS(=O)(=O)N(CC)C(C)C [Compound 110, (5R,8S)-7-[(2S)-2-{[(2S)-2-cyclohexyl-2-({[(2S)-1-isopropylpiperidin-2-yl]carbonyl}amino)acetyl]amino}-3,3-dimethylbutanoyl]-N-[(1R,2S)-1-({[ethyl(isopropyl)amino]sulfonyl}carbamoyl)-2-vinylcyclopropyl]-10,10-dimethyl-7-azadispiro[3.0.4.1]decane-8-carboxamide] | 8 nM |
